Experimental data taken from patent US20060247250A1 (TargeGen, Inc., priority 2005, published 2006).

Target: T1, human c-Src (Homo sapiens, UniProt P12931)
T1 construct: purchased Panvera/Invitrogen
Experiment: Src kinase inhibition, luciferase-based residual ATP (KinaseGlo)
Format: biochemical
Details: recombinant human c-Src, ATP 3 μM, PTK2 substrate, 90 minutes at room temperature
Method: The ability of compounds of the present invention to inhibit the activity of three groups of kinases was tested. Kinases tested included the src family (primarily src and yes), the angiogenic growth factors receptors (FGFR1, PDGFRb and VEGFR2) and the ephrin, EphB4. All kinase reactions were conducted in 96-well plates with a final reaction volume of 50 ul.
Recombinant human c-Src or Yes (28 ng/well, Panvera/Invitrogen, Madison Wis.), ATP (3 μM), a tyrosine kinase substrate (PTK2, 250 μM, Promega Corp., Madison Wis.), and test agents (at concentrations ranging from about 1 nM/l to about 100 μM/1), in the presence of Src kinase reaction buffer (Upstate USA, Lake Placid N.Y.). After reacting for about 90 minutes at room temperature, residual ATP was determined using a luciferase-based assay (KinaseGlo, Promega Corp.) as a measure of kinase activity. Data from four wells were then averaged and used to determine IC50 values for the test compounds (Prism software package, GraphPad Software, San Diego Calif.).

T1 sequence (P12931 whole entry): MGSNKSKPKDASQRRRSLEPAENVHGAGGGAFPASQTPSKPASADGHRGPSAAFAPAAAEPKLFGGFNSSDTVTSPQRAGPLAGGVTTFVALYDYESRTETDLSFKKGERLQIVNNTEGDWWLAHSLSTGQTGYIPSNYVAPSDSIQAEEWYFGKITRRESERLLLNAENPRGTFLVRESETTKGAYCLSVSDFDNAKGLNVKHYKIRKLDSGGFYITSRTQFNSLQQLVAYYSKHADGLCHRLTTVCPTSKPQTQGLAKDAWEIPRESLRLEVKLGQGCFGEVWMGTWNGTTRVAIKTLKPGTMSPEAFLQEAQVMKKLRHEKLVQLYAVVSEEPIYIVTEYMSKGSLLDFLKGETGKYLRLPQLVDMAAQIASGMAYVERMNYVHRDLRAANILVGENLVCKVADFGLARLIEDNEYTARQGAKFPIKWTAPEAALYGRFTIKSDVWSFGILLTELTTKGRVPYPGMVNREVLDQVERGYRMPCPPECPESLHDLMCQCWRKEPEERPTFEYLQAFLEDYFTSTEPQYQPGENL

Compound `O=C(NCCN1CCCC1)c1ccc(Nc2ncc(NC(=O)c3ccc(O)cc3Cl)cn2)cc1` has an IC50 of 0.085 µM.

With `COc1ccc(Cl)c(C(=O)Nc2cnc(Nc3ccc(S(=O)(=O)CCCN4CCCC4)cc3)nc2)c1` [Compound 53, 2-Chloro-5-methoxy-N-{2-[4-(3-pyrrolidin-1-yl-propane-1-sulfonyl)-phenylamino]-pyrimidin-5-yl}-benzamide] the IC50 was 8 µM.

Work on `Cc1cccc(C)c1C(=O)Nc1cnc(Nc2cccc(S(=O)(=O)NCCN(C)C)c2)nc1` [I, N-{2-[3-(2-Dimethylamino-ethylsulfamoyl)-phenylamino]-Pyrimidin-5-yl}-2,6-dimethyl-benzamide] yielded an IC50 of 0.288 µM.

In the case of `O=C(Nc1cnc(Nc2ccc(C(=O)N3CCN(CCO)CC3)nc2)nc1)c1c(Cl)cccc1Cl` [II, 2,6-Dichloro-N-(2-{6-[4-(2-hydroxy-ethyl)-piperazine-1-carbonyl]-pyridin-3-ylamino}-pyrimidin-5-yl)-benzamide], the IC50 is reported as 0.4 µM.

`O=C(Nc1cnc(Nc2ccc(S(=O)(=O)NCCN3CCCC3)cc2)nc1)c1c(Cl)cccc1Cl` [III, 2,6-Dichloro-N-{2-[4-(2-pyrrolidin-1-yl-ethylsulfamoyl)-phenylamino]-pyrimidin-5-yl}-benzamide] gave an IC50 of 0.073 µM.

Compound `CN(CCN1CCCC1)S(=O)(=O)c1ccc(Nc2ncc(NC(=O)c3c(Cl)cccc3Cl)cn2)cc1` [IV, 2,6-Dichloro-N-(2-[4-[methyl-(2-pyrrolidin-1-yl-ethyl)-sulfamoyl]-phenylamino]-pyrimidin-5-yl)-benzamide] has an IC50 of 2.1 µM.

`O=C(NCCN1CCCC1)c1ccc(Nc2ncc(NC(=O)c3cc(O)ccc3Cl)cn2)cn1` [IX, 5-[5-(2-Chloro-5-hydroxy-benzoylamino)-pyrimidin-2-ylamino]-Pyridine-2-carboxylic acid (2-pyrrolidin-1-yl-ethyl)-amide] gave an IC50 of 0.013 µM.

For `Cc1cccc(C)c1C(=O)Nc1cnc(Nc2ccc(C(=O)N3CCNCC3)cc2)nc1` [L, 2,6-Dimethyl-N-{2-[4-(piperazine-1-carbonyl)-phenylamino]-pyrimidin-5-yl}-benzamide], the IC50 was 0.183 µM.

Work on `O=C(Nc1cnc(Nc2ccc(C(=O)N3CCNCC3)cc2)nc1)c1cc(O)ccc1Cl` [LI, 2-Chloro-5-hydroxy-N-{2-[4-(piperazine-1-carbonyl)-phenylamino]-Pyrimidin-5-yl}-benzamide] yielded an IC50 of 0.012 µM.

For `Clc1cccc(Cl)c1CNc1cnc(Nc2cccc(OCCN3CCCC3)c2)nc1` [LII, N′-(2,6-Dichloro-benzyl)-N-[3-(2-pyrrolidin-1-yl-ethoxy)-phenyl]-pyrimidine-2,5-diamine], the IC50 was 0.06 µM.

`Cc1nc(Nc2ncc(NC(=O)c3c(Cl)cccc3Cl)cn2)cc(N2CCN(CCO)CC2)n1` [LIII, 2,6-Dichloro-N-(2-{6-[4-(2-hydroxy-ethyl)-piperazin-1-yl]-2-methyl-pyrimidin-4-ylamino}-pyrimidin-5-yl)-benzamide] showed an IC50 of 3 µM.

In the case of `CN1CCN(S(=O)(=O)c2ccc(Nc3ncc(NC(=O)c4c(Cl)cccc4Cl)cn3)cc2)CC1` [V, 2,6-Dichloro-N-{2-[4-(4-methyl-piperazine-1-sulfonyl)-phenylamino]-pyrimidin-5-yl}-benzamide], the IC50 is reported as 0.667 µM.

For `Cc1cccc(C)c1C(=O)Nc1cnc(Nc2ccc(S(=O)(=O)NCCN3CCCC3)cc2)nc1` [VI, 2,6-Dimethyl-N-{2-[4-(2-pyrrolidin-1-yl-ethylsulfamoyl)-phenylamino]-pyrimidin-5-yl}-benzamide], the IC50 was 0.09 µM.

Work on `O=C(Nc1cnc(Nc2ccc(S(=O)(=O)NCCN3CCCC3)cc2)nc1)c1cc(O)ccc1Cl` [VII, 2-Chloro-5-hydroxy-N-{2-[4-(2-pyrrolidin-1-yl-ethylsulfamoyl)-phenylamino]-pyrimidin-5-yl}-benzamide] yielded an IC50 of 0.013 µM.

Work on `O=C(NCCN1CCCC1)c1ccc(Nc2ncc(NC(=O)c3c(Cl)cccc3Cl)cn2)cn1` [VIII, 5-[5-(2,6-Dichloro-benzoylamino)-pyrimidin-2-ylamino]-pyridine-2-carboxylic acid (2-pyrrolidin-1-yl-ethyl)-amide] yielded an IC50 of 0.129 µM.

`O=C(Nc1cnc(Nc2cccnc2)nc1)c1c(Cl)cccc1Cl` [X, 2,6-Dichloro-N-[2-(pyridin-3-ylamino)-pyrimidin-5-yl]-benzamide] was tested, and the IC50 was 0.3 µM.
